Measured values reported in ChEMBL document CHEMBL1201862, “PubChem BioAssay data set” (2004).
Calls of active or inactive are those of the source.

Columns and labels:
[1] = target: T1, Oxysterols receptor LXR-beta (Homo sapiens, UniProt P55055); type: functional, cell-based;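 also: Cell-based luminescence dose-response assay of agonist activity at LXR, run as a confirmatory counterscreen to a daf-12 agonist screen; HEK293 cells with Gal4-LXR fusion and GAL4-driven luciferase reporter; agonist potency from rising luciferase signal of a Gal4-LXR reporter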
T1 sequence (P55055 whole entry): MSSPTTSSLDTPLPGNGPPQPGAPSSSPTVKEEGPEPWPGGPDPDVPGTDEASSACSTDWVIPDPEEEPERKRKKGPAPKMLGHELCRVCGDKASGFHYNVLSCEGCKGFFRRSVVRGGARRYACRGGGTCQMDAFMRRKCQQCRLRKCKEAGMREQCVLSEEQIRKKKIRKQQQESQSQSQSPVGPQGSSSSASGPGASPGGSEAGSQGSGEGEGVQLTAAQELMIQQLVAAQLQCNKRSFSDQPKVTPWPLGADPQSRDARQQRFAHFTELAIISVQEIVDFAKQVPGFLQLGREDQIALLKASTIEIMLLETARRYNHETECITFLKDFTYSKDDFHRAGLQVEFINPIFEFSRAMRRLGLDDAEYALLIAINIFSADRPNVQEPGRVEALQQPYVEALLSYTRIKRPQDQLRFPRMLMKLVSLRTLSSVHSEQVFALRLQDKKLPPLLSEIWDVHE

[2] = Luminescence Cell-Based Dose Confirmation HTS to Identify Inhibitors of Platelet Dense Granule Release. [Related pubchem assays: 1663 (Primary HTS), 1678 (Summary of Project)]; type: functional
[3] = target: Luciferin 4-monooxygenase (Photinus pyralis, UniProt P08659); assay: firefly luciferase enzyme inhibitors, dose response, biochemical, luminescence (AID 1891)
Cytochrome P450 2D6 = Cytochrome P450 2D6 (Homo sapiens, UniProt P10635); assay: qHTS Assay for Inhibitors and Substrates of Cytochrome P450 2D6. [Related pubchem assays: 410 ]; type: ADME; details: read-out: Potency
Cytochrome P450 3A4 = Cytochrome P450 3A4 (Homo sapiens, UniProt P08684); details: Potency;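 also: confirmatory qHTS run detecting inhibitors and substrates of CYP3A4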
Ion channel NompC = Ion channel NompC (Danio rerio, UniProt Q7T1G6); assay: Fluorescence counterscreen assay for TRPML3 agonists: dose response cell-based high-throughput screening assay to identify agonists of the transient receptor potential channel N1 (TRPN1). [Related pubchem assays: 1526, 1424, 1448 ]; type: functional
Mucolipin-3 = target: T2, Mucolipin-3 (Homo sapiens, UniProt Q8TDD5); assay: Dose response cell-based high-throughput screening assay for agonists of the transient receptor potential channel ML3 (TRPML3). [Related pubchem assays: 1526, 1424, 1448 ]; type: functional
T2 sequence (Q8TDD5 whole entry): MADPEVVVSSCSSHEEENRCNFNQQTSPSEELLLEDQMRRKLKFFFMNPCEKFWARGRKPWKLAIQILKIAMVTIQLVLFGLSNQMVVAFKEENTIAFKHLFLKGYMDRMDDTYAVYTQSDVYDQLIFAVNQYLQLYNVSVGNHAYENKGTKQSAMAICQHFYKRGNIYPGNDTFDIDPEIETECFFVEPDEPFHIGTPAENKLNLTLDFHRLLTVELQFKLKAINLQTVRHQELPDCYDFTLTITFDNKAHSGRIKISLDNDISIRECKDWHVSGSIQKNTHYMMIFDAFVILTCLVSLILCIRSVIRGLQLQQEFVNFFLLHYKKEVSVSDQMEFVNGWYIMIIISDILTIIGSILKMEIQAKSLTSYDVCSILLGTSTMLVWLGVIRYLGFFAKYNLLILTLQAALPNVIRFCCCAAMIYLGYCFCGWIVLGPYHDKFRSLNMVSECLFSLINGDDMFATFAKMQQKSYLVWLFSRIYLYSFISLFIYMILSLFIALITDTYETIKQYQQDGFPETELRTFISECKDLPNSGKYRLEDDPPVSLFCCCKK

Estrogen receptor beta [4] = target: T3, Estrogen receptor beta (Homo sapiens, UniProt Q92731);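 also: recombinant ER-beta bound to coactivator SRC1 peptide in presence of estradiol agonist; inhibitors block coactivator peptide binding and lower the FRET signal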
Estrogen receptor beta [5] = target: T3, Estrogen receptor beta; assay: ERβ–SRC-3 coactivator interaction inhibitors, confirmation, orthogonal assay, biochemical, ELISA, streptavidin-HRP readout (AID 1060)
Ephrin type-A receptor 4 = Ephrin type-A receptor 4 (Mus musculus, UniProt Q03137); assay: inhibitors of EphA4 binding to KYL peptide, primary screen, biochemical, colorimetric, mouse EphA4 (AID 689); type: functional
[6] = target: Peroxisome proliferator-activated receptor gamma/Nuclear receptor coactivator 1 (Homo sapiens, UniProt P37231); type: functional;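 also: agonist potency as compounds enhance coactivator SRC-1 recruitment to PPARgamma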
[7] = target: Peroxisome proliferator-activated receptor gamma/Nuclear receptor coactivator 3 (Homo sapiens, UniProt P37231); type: functional;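 also: agonist potency for raising coactivator recruitment to the receptor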
[8] = target: Peroxisome proliferator-activated receptor gamma/Nuclear receptor coactivator 2 (Homo sapiens, UniProt P37231); type: functional;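 also: agonist potency for raising coactivator recruitment to the receptor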
Caspase-6 = target: T4, Caspase-6 (Homo sapiens, UniProt P55212); assay: human caspase-6 inhibitors, dose response, biochemical, VEID-R110 fluorescence, cherry-pick (AID 720632)
T4 sequence (P55212 whole entry): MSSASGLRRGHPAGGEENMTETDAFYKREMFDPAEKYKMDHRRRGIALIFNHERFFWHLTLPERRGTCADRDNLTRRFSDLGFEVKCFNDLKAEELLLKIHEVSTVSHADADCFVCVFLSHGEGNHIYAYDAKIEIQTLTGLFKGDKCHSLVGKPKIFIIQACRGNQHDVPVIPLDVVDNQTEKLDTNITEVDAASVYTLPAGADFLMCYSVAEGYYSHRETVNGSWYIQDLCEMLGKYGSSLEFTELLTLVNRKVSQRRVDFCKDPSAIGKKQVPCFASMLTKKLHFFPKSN

[9] = target: T5, Carboxy-terminal domain RNA polymerase II polypeptide A small phosphatase 1 (Homo sapiens, UniProt Q9GZU7); assay: inhibitors of CTDSP1, concentration-response testing, biochemical assay, absorbance-based, actives from ultra-high-throughput screening (AID 540297); type: functional
T5 sequence (Q9GZU7 whole entry): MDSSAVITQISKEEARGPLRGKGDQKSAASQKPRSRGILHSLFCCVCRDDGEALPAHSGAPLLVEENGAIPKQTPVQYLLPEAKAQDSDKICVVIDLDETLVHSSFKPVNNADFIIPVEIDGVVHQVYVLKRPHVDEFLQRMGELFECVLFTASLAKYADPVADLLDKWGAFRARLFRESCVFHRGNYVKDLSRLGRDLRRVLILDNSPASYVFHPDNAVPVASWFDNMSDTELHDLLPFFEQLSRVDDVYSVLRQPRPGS

Sequence of Ion channel NompC (Q7T1G6 whole entry): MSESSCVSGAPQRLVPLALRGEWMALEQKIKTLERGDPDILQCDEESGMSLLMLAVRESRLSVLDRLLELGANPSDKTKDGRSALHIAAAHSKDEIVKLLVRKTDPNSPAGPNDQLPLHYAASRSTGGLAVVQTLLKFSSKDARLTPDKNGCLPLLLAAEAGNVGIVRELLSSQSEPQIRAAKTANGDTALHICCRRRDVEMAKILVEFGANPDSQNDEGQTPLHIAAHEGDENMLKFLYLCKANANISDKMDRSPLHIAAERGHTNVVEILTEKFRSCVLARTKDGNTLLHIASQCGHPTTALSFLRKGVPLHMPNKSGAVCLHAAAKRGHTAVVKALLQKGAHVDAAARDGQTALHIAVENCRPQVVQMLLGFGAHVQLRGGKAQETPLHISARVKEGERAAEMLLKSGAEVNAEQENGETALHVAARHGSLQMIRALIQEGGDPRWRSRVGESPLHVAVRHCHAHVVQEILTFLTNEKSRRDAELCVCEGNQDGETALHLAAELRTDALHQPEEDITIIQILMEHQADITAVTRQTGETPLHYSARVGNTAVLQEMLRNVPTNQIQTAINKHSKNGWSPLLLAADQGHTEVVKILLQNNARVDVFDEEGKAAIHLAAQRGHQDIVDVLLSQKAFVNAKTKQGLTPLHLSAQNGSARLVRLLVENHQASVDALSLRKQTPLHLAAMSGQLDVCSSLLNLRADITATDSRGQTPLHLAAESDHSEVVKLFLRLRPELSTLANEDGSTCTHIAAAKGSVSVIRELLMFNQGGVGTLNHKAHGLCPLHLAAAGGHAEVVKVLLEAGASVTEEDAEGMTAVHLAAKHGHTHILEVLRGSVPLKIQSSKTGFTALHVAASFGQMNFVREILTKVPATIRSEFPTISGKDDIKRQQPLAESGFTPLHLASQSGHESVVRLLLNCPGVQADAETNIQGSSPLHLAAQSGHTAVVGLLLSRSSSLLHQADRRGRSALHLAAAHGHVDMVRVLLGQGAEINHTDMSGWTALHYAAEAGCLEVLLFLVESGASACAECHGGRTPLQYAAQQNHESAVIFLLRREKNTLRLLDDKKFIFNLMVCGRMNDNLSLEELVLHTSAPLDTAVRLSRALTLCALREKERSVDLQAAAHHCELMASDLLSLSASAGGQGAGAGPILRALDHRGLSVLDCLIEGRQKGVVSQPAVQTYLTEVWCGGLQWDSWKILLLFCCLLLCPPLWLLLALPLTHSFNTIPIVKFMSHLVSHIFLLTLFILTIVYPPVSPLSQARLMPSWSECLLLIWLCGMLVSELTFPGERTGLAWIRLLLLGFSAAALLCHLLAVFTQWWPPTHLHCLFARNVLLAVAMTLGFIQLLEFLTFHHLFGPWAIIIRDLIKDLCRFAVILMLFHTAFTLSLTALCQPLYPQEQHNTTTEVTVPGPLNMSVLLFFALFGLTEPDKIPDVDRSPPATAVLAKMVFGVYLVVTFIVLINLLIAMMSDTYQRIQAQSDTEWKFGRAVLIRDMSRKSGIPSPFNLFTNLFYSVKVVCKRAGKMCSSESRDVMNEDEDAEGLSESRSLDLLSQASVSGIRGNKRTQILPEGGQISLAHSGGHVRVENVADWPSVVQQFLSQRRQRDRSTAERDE
T3 sequence (Q92731 whole entry): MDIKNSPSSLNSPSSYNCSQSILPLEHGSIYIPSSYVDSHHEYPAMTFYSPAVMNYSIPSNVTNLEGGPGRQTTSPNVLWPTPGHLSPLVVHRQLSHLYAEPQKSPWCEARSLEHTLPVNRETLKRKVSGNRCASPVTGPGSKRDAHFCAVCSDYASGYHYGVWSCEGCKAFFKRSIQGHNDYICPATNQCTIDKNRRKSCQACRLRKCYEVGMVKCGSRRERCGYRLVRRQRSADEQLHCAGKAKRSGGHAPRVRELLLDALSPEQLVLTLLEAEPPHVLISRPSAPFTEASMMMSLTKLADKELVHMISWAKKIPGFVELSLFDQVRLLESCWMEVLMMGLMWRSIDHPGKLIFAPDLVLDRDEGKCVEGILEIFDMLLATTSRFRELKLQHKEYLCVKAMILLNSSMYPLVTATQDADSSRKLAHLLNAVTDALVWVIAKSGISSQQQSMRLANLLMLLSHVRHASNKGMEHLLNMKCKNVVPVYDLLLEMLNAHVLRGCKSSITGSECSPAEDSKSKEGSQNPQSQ
Sequence of Peroxisome proliferator-activated receptor gamma/Nuclear receptor coactivator 3 (P37231 whole entry): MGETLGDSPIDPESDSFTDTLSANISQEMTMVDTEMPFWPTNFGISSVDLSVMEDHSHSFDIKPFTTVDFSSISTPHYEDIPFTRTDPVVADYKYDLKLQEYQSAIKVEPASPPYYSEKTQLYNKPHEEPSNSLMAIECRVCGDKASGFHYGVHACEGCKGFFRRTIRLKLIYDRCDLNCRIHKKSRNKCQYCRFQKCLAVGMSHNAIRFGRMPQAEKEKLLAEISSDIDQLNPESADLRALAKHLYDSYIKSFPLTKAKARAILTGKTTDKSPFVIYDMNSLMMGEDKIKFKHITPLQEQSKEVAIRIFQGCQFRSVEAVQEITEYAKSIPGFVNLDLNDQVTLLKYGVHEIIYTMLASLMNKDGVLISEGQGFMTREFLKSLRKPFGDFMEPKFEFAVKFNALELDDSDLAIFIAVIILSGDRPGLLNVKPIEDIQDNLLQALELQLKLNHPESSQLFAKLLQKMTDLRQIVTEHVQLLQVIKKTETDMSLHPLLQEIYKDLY
Sequence of Peroxisome proliferator-activated receptor gamma/Nuclear receptor coactivator 3 (Q9Y6Q9 whole entry, further chain): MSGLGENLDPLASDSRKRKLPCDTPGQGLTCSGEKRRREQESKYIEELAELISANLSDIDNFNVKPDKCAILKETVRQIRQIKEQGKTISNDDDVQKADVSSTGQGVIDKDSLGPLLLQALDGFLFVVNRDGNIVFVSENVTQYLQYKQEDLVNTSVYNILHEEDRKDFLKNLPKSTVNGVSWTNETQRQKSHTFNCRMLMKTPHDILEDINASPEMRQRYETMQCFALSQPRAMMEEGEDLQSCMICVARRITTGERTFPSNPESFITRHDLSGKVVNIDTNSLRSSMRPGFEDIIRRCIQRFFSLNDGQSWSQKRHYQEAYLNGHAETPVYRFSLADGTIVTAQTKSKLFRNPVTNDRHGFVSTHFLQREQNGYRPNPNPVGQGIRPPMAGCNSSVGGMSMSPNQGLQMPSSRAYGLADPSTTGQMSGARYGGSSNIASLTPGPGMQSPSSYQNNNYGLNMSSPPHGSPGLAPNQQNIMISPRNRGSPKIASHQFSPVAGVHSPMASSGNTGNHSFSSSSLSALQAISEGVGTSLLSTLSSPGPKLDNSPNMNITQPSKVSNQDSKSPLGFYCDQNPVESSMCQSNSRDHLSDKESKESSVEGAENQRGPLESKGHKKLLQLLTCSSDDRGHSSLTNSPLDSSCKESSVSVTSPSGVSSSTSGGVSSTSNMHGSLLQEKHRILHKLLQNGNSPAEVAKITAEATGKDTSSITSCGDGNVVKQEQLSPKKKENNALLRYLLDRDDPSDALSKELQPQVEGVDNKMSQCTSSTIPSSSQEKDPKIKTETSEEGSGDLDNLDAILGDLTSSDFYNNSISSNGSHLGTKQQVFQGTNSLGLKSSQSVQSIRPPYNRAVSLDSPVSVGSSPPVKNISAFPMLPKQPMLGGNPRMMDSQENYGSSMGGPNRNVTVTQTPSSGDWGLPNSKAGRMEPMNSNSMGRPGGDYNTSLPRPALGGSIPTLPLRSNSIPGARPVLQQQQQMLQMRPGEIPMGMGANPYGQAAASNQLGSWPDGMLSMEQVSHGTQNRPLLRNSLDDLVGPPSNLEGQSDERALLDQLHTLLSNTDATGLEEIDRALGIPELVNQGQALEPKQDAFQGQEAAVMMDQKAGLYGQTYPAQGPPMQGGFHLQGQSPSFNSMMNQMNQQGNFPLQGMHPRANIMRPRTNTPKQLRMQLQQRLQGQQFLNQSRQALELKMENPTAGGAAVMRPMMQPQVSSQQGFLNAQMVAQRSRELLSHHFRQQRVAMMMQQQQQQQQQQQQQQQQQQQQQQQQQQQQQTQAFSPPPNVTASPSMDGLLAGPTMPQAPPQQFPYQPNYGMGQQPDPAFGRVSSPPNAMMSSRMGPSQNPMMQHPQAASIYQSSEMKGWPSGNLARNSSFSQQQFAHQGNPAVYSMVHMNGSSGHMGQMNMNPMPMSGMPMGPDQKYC
Sequence of Luciferin 4-monooxygenase (P08659 whole entry): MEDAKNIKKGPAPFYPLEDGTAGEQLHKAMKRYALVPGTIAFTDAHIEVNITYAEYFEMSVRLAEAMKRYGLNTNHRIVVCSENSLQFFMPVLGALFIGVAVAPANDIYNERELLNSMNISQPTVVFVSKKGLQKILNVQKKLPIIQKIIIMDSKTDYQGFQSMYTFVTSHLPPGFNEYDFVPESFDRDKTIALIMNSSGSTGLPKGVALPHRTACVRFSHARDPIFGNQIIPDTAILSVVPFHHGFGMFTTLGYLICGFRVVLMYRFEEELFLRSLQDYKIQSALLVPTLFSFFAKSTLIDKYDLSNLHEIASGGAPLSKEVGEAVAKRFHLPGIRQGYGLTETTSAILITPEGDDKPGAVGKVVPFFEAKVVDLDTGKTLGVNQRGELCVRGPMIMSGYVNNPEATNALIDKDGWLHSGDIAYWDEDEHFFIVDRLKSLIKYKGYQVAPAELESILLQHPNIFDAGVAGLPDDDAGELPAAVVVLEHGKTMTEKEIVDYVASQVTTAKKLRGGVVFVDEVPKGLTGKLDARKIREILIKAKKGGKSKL

With `Cc1ccc(N=Nc2cc(C)ccc2N)cc1` the EC50 [1] was > 67.5 µM (inactive), the EC50 (cells) was > 67.5 µM (inactive) and the EC50 [2] was 3.15 µM (active). The EC50 [3] was 0.149 µM (active).

In the case of `CC12C=C(/C=C/c3ccccc3)C(C)(C1)C(c1ccccc1)CC2=O` (configuration not stated), the AC50 (Cytochrome P450 2D6) is reported as 3.16 µM (inconclusive) and the AC50 (Cytochrome P450 3A4) is reported as 3.16 µM (inconclusive).

In the case of `CC1(C)Cc2cccc(Oc3ccc(S(=O)(=O)N4CCCCC4)cn3)c2O1`, the EC50 (Ion channel NompC) is reported as > 29.9 µM (not active) and the EC50 (Mucolipin-3) is reported as 9.27 µM (active).

For `CC(=O)NC12CC3CC(C1)CC(C(=O)OCC(=O)Nc1ncc(Cl)c(C)c1Cl)(C3)C2`, the IC50 (Estrogen receptor beta [4]) was 9.36 µM (active) and the IC50 (Estrogen receptor beta [5]) was < 0.023 µM (not active).

In the case of `CC1CCCCN1C(=O)CSc1nnc(-c2ccccc2O)o1` (configuration not stated), the EC50 [1] is reported as > 67.5 µM (inactive) and the EC50 (cells) is reported as > 67.5 µM (inactive).

In the case of `Cc1ccc(S(=O)(=O)/C(C#N)=C/c2c(N3CCOCC3)nc3ccccn3c2=O)cc1`, the IC50 (Ephrin type-A receptor 4) is reported as > 100 µM (not active).

For `O=C(Nc1ccc2oc(-c3ccncc3)nc2c1)c1c(F)c(F)c(F)c(F)c1F`, the EC50 [6] was 25.8 µM (not active), the EC50 [7] was 28.9 µM (not active) and the EC50 [8] was 25.6 µM (not active).

In the case of `CC1CCC2(CC1)NC(=O)N(CC(=O)Nc1sc3c(c1C(N)=O)CCC3)C2=O` (configuration not stated), the AC50 (Caspase-6) is reported as 10.9 µM (active) and the IC50 [9] is reported as 3.44 µM (active).

For `COc1ccc(S(=O)(=O)NC2CCCCC2)c(C)c1C`, the EC50 (Ion channel NompC) was > 29.9 µM (not active) and the EC50 (Mucolipin-3) was > 3.32 µM (not active).

With `Cc1onc(-c2ccccc2)c1C(=O)N(Cc1ccco1)Cc1cccs1` the EC50 (Ion channel NompC) was > 29.9 µM (not active) and the EC50 (Mucolipin-3) was 12.4 µM (not active).
